Patent US20150189882A1, “ACTIVE INGREDIENT COMBINATIONS HAVING INSECTICIDAL AND ACARICIDAL PROPERTIES” (priority 2011, published 2015)
Read-outs that look alike come from different tables or passages of the source.

Assays:
Spodoptera frugiperda = Spodoptera frugiperda - spray application; assay type: in vivo; settings: Spodoptera frugiperda; for mortality at 4 g/ha: 4 g ai/ha; for mortality at 20 g/ha: 20 g ai/ha; for mortality at 100 g/ha: 100 g ai/ha
Experimental: (§1) To produce a suitable preparation of active compound, 1 part by weight of active compound is mixed with the stated amount of solvent and emulsifier, and the concentrate is diluted with emulsifier-containing water to the desired concentration. To produce a suitable preparation of a biological suspension the cells, viruses or spores are diluted with emulsifier-containing water to the desired concentration.
Cabbage (Brassica oleracea) leaf-discs are sprayed with a preparation of the active ingredient at the desired concentration. Once dry, the leaf discs are infested with larvae of the fall army worm (Spodoptera frugiperda).
After the specified period of time, mortality in % is determined. 100% means that all the caterpillars have been killed; 0% means that none of the caterpillars have been killed. The mortality values thus determined are recalculated using the Colby-formula.

[1] = test system: Tetranychus urticae (OP-resistant); assay: Tetranychus urticae - test (OP-resistant), French bean leaf discs; assay type: in vivo; settings: Tetranychus urticae, foliar; for mortality at 4 g/ha: 4 g ai/ha
Experimental: as §1, with “cells” for “cells, viruses”
Leaf discs of French beans (Phaseolus vulgaris) infected with all instars of the Two-spotted spider mite (Tetranychus urticae), are sprayed with a preparation of the active ingredient at the desired concentration.
After the specified period of time mortality in % is determined. 100% means that all spider mites have been killed; 0% means that none of the spider mites have been killed.

[2] = test system: Tetranychus urticae (OP-resistant); assay: Tetranychus urticae - test; OP-resistant (TETRUR), bean plants sprayed; assay type: in vivo
Experimental: as §1, with “the desired concentration Ammonium salt and/or penetration enhancer in a dosage of 1000 ppm are added to the desired concentration if necessary. To produce” for “the desired concentration. To produce”, “suspension the cells or spores” for “suspension the cells, viruses or spores”
Bean plants (Phaseolus vulgaris) which are heavily infested with all stages of the two-spotted spider mite (Tetranychus urticae) are treated by being sprayed with the preparation of the active compound of the desired concentration.
After the specified period of time, mortality in % is determined 100% means that all the spider mites have been killed; 0% means that none of the spider mites have been killed.

soybean (Glycine max) [3] = assay: Seed treatment - germination test soybean; assay type: in vivo; settings: 0.15 g ai/kg seeds
Experimental: Seeds of soybean (Glycine max) were treated by being mixed with the desired amount of active compound and spores and water. After drying, 25 seeds were sown into each pot filled with sandy loam.
After the specified period of time the level of activity expressed in % was determined. The level of activity was calculated on the basis of the number of soybean plants which have successfully germinated.

soybean (Glycine max) [4] = assay: Shoot weight - soybean (seed treatment); assay type: in vivo; settings: 0.3 g ai/kg seeds
Experimental: Seeds of soybean (Glycine max) were treated by being mixed with the desired amount of active compound and spores and water. After drying, each seed was sown into a pot filled with loamy sand. The pots were placed in the greenhouse with conditions appropriate for good plant growth.
After the specified period of time the plants were harvested and the shoot weight of the plants was determined. The weight is expressed in % whereupon the weight of the control is set 100%.

Myzus persicae = assay: whole plant or invertebrate; settings: in Brassica rapa, foliar
[5] = test system: Phaedon cochleariae larvae; assay: whole plant or invertebrate
[6] = read-out: Mortality in % after 2^d
[7] = read-out: Mortality in % after 6^d
[8] = read-out: Mortality in % after 1^d

Compound `Cc1cc(F)c(-n2nc(C(F)(F)F)nc2N)cc1[S+]([O-])CC(F)(F)F` (racemic) [Compound (I)] has a mortality at 0.8 g/ha (Spodoptera frugiperda; 0.8 g ai/ha, read-out: Mortality in % after 6^d) of 0%, a mortality at 4 g/ha (Spodoptera frugiperda; [6]) of 0% and a mortality at 4 g/ha (Spodoptera frugiperda; [7]) of 0%. It also gave a mortality at 20 g/ha (Spodoptera frugiperda; [6]) of 0%, a mortality at 20 g/ha (Spodoptera frugiperda; [7]) of 0% and a mortality at 100 g/ha (Spodoptera frugiperda; [6]) of 0%. It also gave a mortality at 100 g/ha (Spodoptera frugiperda; [7]) of 0%, a mortality at 4 g/ha [1, 6] of 30% and a mortality at 4 g/ha [1, 7] of 30%. For the same compound, the mortality at 20 g/ha ([1]; 20 g ai/ha, read-out: Mortality in % after 2^d) was 80%, the mortality at 0.8 ppm ([2]; read-out: Mortality in % after 3^d) was 40% and the mortality at 0.8 ppm ([2]; read-out: Mortality in % after 5^d) was 40%. The “% Germination after 3 days control was set 100%” value (soybean (Glycine max) [3]) was 97%, the “Shoot weight after 21 days control was set 100%” value (soybean (Glycine max) [4]) was 98% and the mortality at 4 g/ha (Myzus persicae; [8]) was 0%. For the same compound, the mortality at 20 g/ha (Myzus persicae; [8]) was 0%, the mortality at 100 g/ha (Myzus persicae; [8]) was 0% and the mortality at 4 g/ha (Myzus persicae; [7]) was 0%. For the same compound, the mortality at 20 g/ha (Myzus persicae; [7]) was 0%, the mortality at 100 g/ha (Myzus persicae; [7]) was 0% and the mortality at 0.8 g/ha [5, 6] was 0%. For the same compound, the mortality at 4 g/ha [5, 6] was 0%, the mortality at 20 g/ha [5, 6] was 0% and the mortality at 100 g/ha [5, 6] was 0%. It also gave a mortality at 4 g/ha [5, 7] of 0%, a mortality at 20 g/ha [5, 7] of 0% and a mortality at 100 g/ha [5, 7] of 0%.
